From article PMC11480411, “Mucosal sugars delineate pyrazine vs pyrazinone autoinducer signaling in Klebsiella oxytoca” (Nature Communications, 2024)
Several values for one entry are separate records, joined by “and”; a condition that tells them apart may be missing. Identical values can stand only once.

Assays:
Assay in all cases: PRESTO-Tango GPCR screen and dose-response
Assay type in all cases: cell-based
Details in all cases: replicate wells
[1] = biological target: T1, histamine receptor H4 (HRH4) (Homo sapiens, UniProt Q9H3N8)
T1 construct: expressed in transfected cells; host or cells: HTLA cells (HEK293 line stably expressing β-arrestin-TEV and tTA-Luciferase)
Description: (§1) The PRESTO-Tango analyses were performed as previously published. Briefly, HTLA cells, a HEK293 cell line that stably expresses β-arrestin-TEV and tTA-Luciferase (a kind gift from Gilad Barnea, Brown University), were plated in 96-well tissue culture plates (Eppendorf) in DMEM containing 10% FBS and 1% Penicillin/Streptomycin. One day after plating (after reaching approximately 90% confluence), 200 ng per well GPCR-Tango plasmids[37] in 20 μL DMEM were individually mixed with 400 ng polyethylenimine (Polysciences) in an equal volume of DMEM and incubated for 20 min at room temperature before adding the transfection mixture to the HTLA cells. 16-24 h after transfection, medium was replaced with 180 μL fresh DMEM containing 1% Penicillin/Streptomycin and 10 mM HEPES and 20 μL of 3 or 3-Homo to reach a final concentration of 100 μM. Supernatants were aspirated 20 h after stimulation and 50 μl per well of Bright-Glo solution (Promega) diluted 20-fold with PBS containing 20 mM HEPES was added into each well. After 15 min incubation at room temperature, luminescence was quantified using a Spectramax i3x microplate reader (Molecular Devices). Activation fold for each sample was calculated by dividing relative luminescence units (RLU) for each condition by RLUs from PBS control. Dose response curves of each chemical were performed in a similar way with varying the ligand concentration from 10^−4 M to 10^−15 M.

HRH2 = biological target: T2, HRH2 (Homo sapiens, UniProt P25021)
T2 construct: expressed in transfected cells; host or cells: HTLA cells (HEK293 line stably expressing β-arrestin-TEV and tTA-Luciferase)
Description: as §1

HRH1 = biological target: T3, HRH1 (Homo sapiens, UniProt P35367)
T3 construct: expressed in transfected cells; host or cells: HTLA cells (HEK293 line stably expressing β-arrestin-TEV and tTA-Luciferase)
Description: as §1

T3 sequence (P35367 whole entry): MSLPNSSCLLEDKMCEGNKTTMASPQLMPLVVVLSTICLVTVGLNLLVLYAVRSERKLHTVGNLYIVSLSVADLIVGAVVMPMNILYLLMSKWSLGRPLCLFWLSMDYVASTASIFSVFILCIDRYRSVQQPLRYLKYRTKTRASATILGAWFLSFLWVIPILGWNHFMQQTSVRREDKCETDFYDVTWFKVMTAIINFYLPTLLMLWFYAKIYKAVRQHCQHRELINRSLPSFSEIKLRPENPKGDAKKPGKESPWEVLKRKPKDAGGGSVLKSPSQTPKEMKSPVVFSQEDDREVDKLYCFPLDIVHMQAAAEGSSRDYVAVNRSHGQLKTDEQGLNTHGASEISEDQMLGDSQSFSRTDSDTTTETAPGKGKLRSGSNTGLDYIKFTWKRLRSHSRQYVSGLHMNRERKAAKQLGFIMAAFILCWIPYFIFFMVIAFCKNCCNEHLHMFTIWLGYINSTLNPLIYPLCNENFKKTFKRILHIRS
T2 sequence (P25021 whole entry): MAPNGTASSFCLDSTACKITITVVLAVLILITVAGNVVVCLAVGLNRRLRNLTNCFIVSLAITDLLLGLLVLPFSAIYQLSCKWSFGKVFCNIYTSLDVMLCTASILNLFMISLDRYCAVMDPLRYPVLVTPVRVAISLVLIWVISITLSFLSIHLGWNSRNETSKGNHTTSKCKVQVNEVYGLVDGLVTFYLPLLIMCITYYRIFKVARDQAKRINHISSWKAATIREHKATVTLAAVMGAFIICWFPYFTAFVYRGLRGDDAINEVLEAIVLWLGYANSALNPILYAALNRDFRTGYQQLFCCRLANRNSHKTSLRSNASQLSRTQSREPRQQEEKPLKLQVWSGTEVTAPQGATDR

HRH4 dose-response raw reporter signal (Fig. 5b source data) ([1]; Log(10)Conc (M) -5): 20161 and 21099
HRH4 dose-response raw reporter signal (Fig. 5b source data) ([1]; Log(10)Conc (M) -6): 15058 and 15677
HRH4 dose-response raw reporter signal (Fig. 5b source data) ([1]; Log(10)Conc (M) -7): 3788 and 3862
HRH4 dose-response raw reporter signal (Fig. 5b source data) ([1]; Log(10)Conc (M) -8): 887 and 1023
HRH4 dose-response raw reporter signal (Fig. 5b source data) ([1]; Log(10)Conc (M) -9): 590 and 625
HRH4 dose-response raw reporter signal (Fig. 5b source data) ([1]; Log(10)Conc (M) -10): 537 and 513
HRH4 dose-response raw reporter signal (Fig. 5b source data) ([1]; Log(10)Conc (M) -11): 475
HRH4 dose-response raw reporter signal (Fig. 5b source data) ([1]; Log(10)Conc (M) -12): 433 and 407
HRH4 dose-response raw reporter signal (Fig. 5b source data) ([1]; Log(10)Conc (M) -13): 377 and 419
HRH4 dose-response raw reporter signal (Fig. 5b source data) ([1]; Log(10)Conc (M) -14): 545 and 448
HRH4 dose-response raw reporter signal (Fig. 5b source data) ([1]; Log(10)Conc (M) -15): 245
HRH2 dose-response raw reporter signal (Fig. 5b source data) (HRH2; Log(10)Conc (M) -4): 3877 and 3933 and 3726
HRH2 dose-response raw reporter signal (Fig. 5b source data) (HRH2; Log(10)Conc (M) -5): 699 and 758 and 693
HRH2 dose-response raw reporter signal (Fig. 5b source data) (HRH2; Log(10)Conc (M) -6): 144 and 156 and 139
HRH2 dose-response raw reporter signal (Fig. 5b source data) (HRH2; Log(10)Conc (M) -7): 56 and 88 (2×)
HRH2 dose-response raw reporter signal (Fig. 5b source data) (HRH2; Log(10)Conc (M) -8): 94 and 91 and 50
HRH2 dose-response raw reporter signal (Fig. 5b source data) (HRH2; Log(10)Conc (M) -9): 62 and 56 and 65
HRH2 dose-response raw reporter signal (Fig. 5b source data) (HRH2; Log(10)Conc (M) -10): 59 and 68 and 77
HRH2 dose-response raw reporter signal (Fig. 5b source data) (HRH2; Log(10)Conc (M) -11): 53 and 68 and 38
HRH2 dose-response raw reporter signal (Fig. 5b source data) (HRH2; Log(10)Conc (M) -12): 50 and 56 and 88
HRH2 dose-response raw reporter signal (Fig. 5b source data) (HRH2; Log(10)Conc (M) -13): 44 and 77 and 100
HRH2 dose-response raw reporter signal (Fig. 5b source data) (HRH2; Log(10)Conc (M) -14): 44 and 83 and 77
HRH2 dose-response raw reporter signal (Fig. 5b source data) (HRH2; Log(10)Conc (M) -15): 32 and 47 and 38
HRH1 dose-response raw reporter signal (Fig. 5b source data) (HRH1; Log(10)Conc (M) -4): 81577 and 82137
HRH1 dose-response raw reporter signal (Fig. 5b source data) (HRH1; Log(10)Conc (M) -5): 78216 and 78255
HRH1 dose-response raw reporter signal (Fig. 5b source data) (HRH1; Log(10)Conc (M) -6): 75259 and 78673
HRH1 dose-response raw reporter signal (Fig. 5b source data) (HRH1; Log(10)Conc (M) -7): 76949 and 75622
HRH1 dose-response raw reporter signal (Fig. 5b source data) (HRH1; Log(10)Conc (M) -8): 67606 and 69585
HRH1 dose-response raw reporter signal (Fig. 5b source data) (HRH1; Log(10)Conc (M) -9): 52047 and 52194
HRH1 dose-response raw reporter signal (Fig. 5b source data) (HRH1; Log(10)Conc (M) -10): 45399 and 45284
HRH1 dose-response raw reporter signal (Fig. 5b source data) (HRH1; Log(10)Conc (M) -11): 44193 and 43739
HRH1 dose-response raw reporter signal (Fig. 5b source data) (HRH1; Log(10)Conc (M) -12): 45001 and 44441
HRH1 dose-response raw reporter signal (Fig. 5b source data) (HRH1; Log(10)Conc (M) -13): 46307 and 47693
HRH1 dose-response raw reporter signal (Fig. 5b source data) (HRH1; Log(10)Conc (M) -14): 46469 and 45317
HRH1 dose-response raw reporter signal (Fig. 5b source data) (HRH1; Log(10)Conc (M) -15): 42643 and 42151
Structure (SMILES): NCCc1c[nH]cn1 [Histamine, histamine, reference compound]
